Measured values reported in patent publication US10905683B2, “Compositions and uses of amidine derivatives” (BIOCRYST PHARMACEUTICALS, INC., priority 2014, dated 2021).
Values after ≈ are worked out from the molar mass of the structure shown.

How the values were obtained:
[1] = octanol-PBS pH 7.4 partition coefficient (log D7.4) assay; assay type: physicochemical; settings: octanol/0.01 M phosphate buffer pH 7.4, 24 hours, LC/MS/MS
Procedure: A 1 μL volume of a 1 mM stock solution of the compound in dimethyl sulfoxide (DMSO) was added to 500 μL 0.01 M phosphate buffer pH 7.4 (saturated with octanol) and 500 μL of octanol (saturated with 0.01 M phosphate buffer). […] Samples were prepared in triplicate.

[2] = Aqueous solubility assay in buffer and simulated gastric/intestinal fluids; settings: 37 °C, thermodynamic from solid, Observed Solubility, Target 100 μM, 24 hours
Procedure: The target concentration in each solution was 100 μM. […] The aqueous solutions were added (1 mL) to the dried samples and mixed at 400 rpm at 37° C. on an orbital plate shaker. […] Samples were prepared in triplicate. Testosterone and verapamil were used as reference compounds.

[3] = Concentration achieved in formulations and excipient mixtures; assay type: physicochemical; settings: in the (oral) pharmaceutical compositions described
Procedure: In initial formulation work for the amidine compounds described herein, in particular 3-[2-(4-carbamimidoyl-phenylcarbamoyl)-5-methoxy-4-vinyl-phenyl]-6-(cyclopropylmethyl-carbamoyl)-pyridine-2-carboxylic acid, extensive studies were carried out to identify a suitable mixture of excipients to produce the oral formulation described herein.
Specifically, a variety of approaches were taken to develop suitable oral formulations of 3-[2-(4-carbamimidoyl-phenylcarbamyl)-5-methoxy-4-vinyl-phenyl]-6-(cyclopropylmethyl-carbamoyl)-pyridine-2-carboxylic acid. The approaches taken included use of a variety of hydrophilic polymers, including α-cyclodextrin and a polyanionic 3-cyclodextrin derivative with a sodium sulfonate salt separated from the lipophilic cavity by a butyl ether or sulfobutylether spacer group in combination with a variety of co-solvents. In addition, the compound was evaluated in formulations created by a number of different technologies (such as dry blends, nanosuspensions, solid dispersion and emulsions) using a variety of approaches.

[4] = Polymorphic conversion of Form A under relative humidity; assay type: physicochemical; settings: RH 43%, 75% and 100%, room temperature
Text: In another embodiment, pharmaceutical compositions of Form A, in particular the oral pharmaceutical compositions described herein, when administered to a subject provide for increased bioavailability of the compound as compared to amorphous 3-[2-(4-carbamimidoyl-phenylcarbamoyl)-5-methoxy-4-vinylphenyl]-6-(cyclopropylmethyl-carbamoyl)-pyridine-2-carboxylic acid and salts thereof and other crystalline forms. In another embodiment, pharmaceutical compositions of Form A, in particular the oral pharmaceutical compositions described herein, when administered to a subject for treating a condition, is sufficient to affect such treatment. In another embodiment, pharmaceutical compositions of Form A, in particular the oral pharmaceutical compositions described herein, when administered to a subject for treating a condition, is sufficient to affect such treatment when dosed 1 to 3 times per day or less (such as 1 to 2 times). In another embodiment, pharmaceutical compositions of Form A, in particular the oral pharmaceutical compositions described wherein when administered to a subject provide for a therapeutically effective amount of the compound of at least 10 ng/ml, at least 15 ng/ml or at least 25 ng/ml in the blood of the subject for a period of at least from two hours to four hours after administration to a subject. […]

SMILES: C[C@@H]1C[C@H]2[C@@H]3CCC4=CC(=O)C=C[C@]4(C)[C@@]3(F)[C@@H](O)C[C@]2(C)[C@@]1(O)C(=O)CO [Dexamethasone, reference compound]
- logD at 24 h [1]: 1.5

SMILES: C[C@]12CC[C@H]3[C@@H](CCC4=CC(=O)CC[C@@]43C)[C@@H]1CC[C@@H]2O [Testosterone, reference compound]
- solubility at 24 h ([2]; fassgf or other biorelevant, Fasted-State SGF): 43 µM (≈ 12.4 µg/mL)
- solubility at 24 h ([2]; fassgf or other biorelevant, Fed-State SGF): 27 µM (≈ 7.79 µg/mL)
- solubility at 24 h ([2]; fassif, Fasted-State SIF): 35 µM (≈ 10.1 µg/mL)
- solubility at 24 h ([2]; fessif, Fed-State SIF): 36 µM (≈ 10.4 µg/mL)
- solubility at 24 h ([2]; pH 7.4, aqueous buffer, 0.1M phosphate buffer pH 7.4, 37° C.): 42 µM (≈ 12.1 µg/mL)

SMILES: C=Cc1cc(C(=O)Nc2ccc(C(=N)N)cc2)c(-c2ccc(C(=O)NCC3CC3)nc2C(=O)O)cc1OC.Cl [Form A, 3-[2-(4-Carbamimidoylphenylcarbamoyl)-5-methoxy-4-vinylphenyl]-6-(cyclopropylmethylcarbamoyl)pyridine-2-carboxylic acid hydrochloride]
- concentration solubilized [3]: greater than 140 mg/ml
- conversion to other polymorphic forms [4]: not observed
